In patent US20230301909A1 (The University of Tokyo, priority 2020, published 2023):

Test system: human placenta
Test: Human placental perfusion model (ex vivo placental permeability)
Format: in vitro ADME
Conditions: FIG. 12A
Description: For this Example, the permeability of polymer micelles, low molecular compounds and polymers of different sizes through the human placenta was evaluated using a human placental perfusion model.
The human placental perfusion model was created according to NPL 4 (K. Shintaku et. al., Drug Metab. Dispos. 37 (2009) 962) and NPL 5 (J. R. Huston et. al., Clin, Pharmacol. Ther, 90 (2011) 67). […] DACH-platin encapsulating micelles (30 nm and 70 nm particle sizes) (DACH-platin dose: 85.4 mg/L), oxaliplatin (2.7 mg/L.) and Cy3-labeled 8-arm PEG (fluorescence intensity: 3,000 (RFU)) were perfused for 60 minutes, and 1 ml of each solution was recovered every 5 minutes from the vein on the fetus side. The platinum contents of the recovered samples from the oxaliplatin-and DACH-platin encapsulating micelle-administered groups were measured by inductively coupled […] mass spectrometry. The fluorescence intensities of the polymers were quantified by HPLC. […]
The human placental perfusion model was created according to NPL 4 (K. Shintaku et. al., Drug Metab. Dispos. 37 (2009) 962) and NPL 5 (J. R. Huston et. al., Clin. Pharmacol. Ther. 90 (2011) 67). […] The pH of the recovered sample was adjusted, releasing the nicotinamide, and the nicotinamide in the solution was measured by HPLC (detector: EXTREMA by JASCO Corp., column: TSKgel ODS-120H by Tosoh Corp., 1.9 μm). […]

## O=C1[O][Pt]2([NH][C@@H]3CCCC[C@H]3[NH]2)[O]C1=O [oxaliplatin]
Human placental perfusion
  accumulation in the placenta: accumulation of oxaliplatin in the placenta
Perfused for 60 minutes, fetus-side vein samples
  permeation through the placenta: permeated the placenta
